Assay results: US20240352036A1, “CRYSTALLINE FORMS OF RAS INHIBITORS, COMPOSITIONS CONTAINING THE SAME, AND METHODS OF USE THEREOF” (Revolution Medicines, Inc., priority 2023, published 2024)
Each block holds one molecule with its values, some of them ahead of it.

Columns and labels:
Type in all cases: physicochemical
[1] = variable humidity XRPD of crystalline Form 1; details: 25° C., XRPD at each RH
Protocol: In another method, crystalline Form 1 was subjected to variable humidity XRPD experiments. In this experiment, two relative humidity (RH) cycles were applied at 25° C. XRPD analysis was carried out in each specific relative humidity. Cycle 1: 40% RH (initial)-40% RH (3 h)-60% RH (3 h)-80% RH (3 h)-95% RH (3 h)-80% RH (3 h)-60% RH (3 h)-40% RH (3 h)-20% RH (3 h) 0% RH (3 h); Cycle 2: 20% RH (3 h)-40% RH (3 h).

[2] = XRPD monitoring over time of pure Form 1 from a saturated diethyl ether slurry
Protocol: The formation of Form 2 is indicated by the presence of an intense peak at 4.8° 2θ (FIG. 2), which is absent in pure samples of Form 1 (FIG. 1 and FIG. 3). To study the formation of Form 2, a saturated slurry of Compound A was prepared in diethyl ether, which produced pure Form 1 at time=0 hr, and this pure sample was monitored over time using XRPD analysis. A shoulder peak at 4.8° 2θ was detected after approx. 2 hours and increased in intensity compared to the original Form 1 peaks after 4 and 17 days (FIG. 4).

[3] = storage under ambient conditions followed by XRPD; details: two weeks of storage under ambient conditions (room temperature)

solid form conversion at relative humidity lower than 80% ([1]; two RH cycles, RH lower than 80%): converted back to Form 1
Compound: CCn1c(-c2cccnc2[C@H](C)OC)c2c3cc(ccc31)N1CCO[C@@H](C[C@H](NC(=O)[C@H](C(C)C)N(C)C(=O)C3(F)CCN(C(=O)C#CC(C)(C)N(C)C)CC3)C(=O)N3CCC[C@H](N3)C(=O)OCC(C)(C)C2)C1 (atropisomer, axis not shown) [Form 2]

time until the Form 2 shoulder peak at 4.8° 2θ was detected ([2]; pure Form 1 at time=0 hr from saturated diethyl ether slurry, peak increased in intensity after 4 and 17 days): approx. 2 hours
Compound: CCn1c(-c2cccnc2[C@H](C)OC)c2c3cc(ccc31)N1CCO[C@@H](C[C@H](NC(=O)[C@H](C(C)C)N(C)C(=O)C3(F)CCN(C(=O)C#CC(C)(C)N(C)C)CC3)C(=O)N3CCC[C@H](N3)C(=O)OCC(C)(C)C2)C1 (atropisomer, axis not shown) [Form 1]
solid form conversion at relative humidity higher than 80% RH ([1]; two RH cycles 0-95% RH, 3 h per step, RH higher than 80%): converted or partially converted to Form 2
solid form stability over time (XRPD) ([2]; pure Form 1 monitored up to 17 days): may produce a mixture of Forms 1 and 2 over time

solid form stability on storage (XRPD) [3]: converted to a disordered material
Compound: CCn1c(-c2cccnc2[C@H](C)OC)c2c3cc(ccc31)N1CCO[C@@H](C[C@H](NC(=O)[C@H](C(C)C)N(C)C(=O)C3(F)CCN(C(=O)C#CC(C)(C)N(C)C)CC3)C(=O)N3CCC[C@H](N3)C(=O)OCC(C)(C)C2)C1 (atropisomer, axis not shown) [Form 4]
